Two compounds from PubChem BioAssay (NCI) can be followed below.

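How tested: cells in 96-well plates exposed to compound for 48 hours at five concentrations. GI50 is the concentration that inhibits growth by half. TGI: total growth inhibition.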 Some results are limits rather than exact numbers.

Experiment in all cases: inhibition of tumour cell growth, NCI panel, 48 h
Experiment [1] has as its system NCI-H522 lung.
Experiment [2] relates to HCT-116 colon.
In experiment [3] the test system is OVCAR-3 ovarian.
Experiment [4] deals with SW-620 colon.
The test system of experiment [5] is SF-268 CNS.
The subject of experiment [6] is COLO 205 colon.
Experiment [7] has as its system MOLT-4 leukemia.
Experiment [8] relates to HOP-92 NSCLC.
In experiment [9] the test system is SK-MEL-2 melanoma.
For experiment [10], the system named is A549 NSCLC.

On to `COC(=O)[C@H](Cc1ccccc1)NC(=O)c1csc([C@@H](C[C@H](C(C)C)N(C)C(=O)[C@@H](NC(=O)[C@H]2CCCCN2C)C2CC2)OC(C)=O)n1`, for which the GI50 was 6.54 nM in experiment [1]; 19.7 nM in experiment [2]; 10.2 nM in experiment [3]; 16.7 nM in experiment [4]; 111 nM in experiment [5]; 48 nM in [6]. The GI50 is 36.2 nM in [7], 137 nM in experiment [8], 492 nM in experiment [9] and 99.1 nM in experiment [10]. The TGI was 300 nM in experiment [1]; over 25000 nM in experiment [2]; 63 nM in experiment [3]; over 25000 nM in [4]; over 25000 nM in experiment [5]; 362 nM in experiment [6]. Also, the TGI was over 25000 nM in experiment [7], 4180 nM in experiment [8], over 25000 nM in [9] and over 25000 nM in experiment [10].

Regarding `CO[C@H]1C=C[C@]23c4cc5c(cc4CN(CC2O)[C@@H]3C1)OCO5` (stereo not given in full), the TGI was 16000 nM in [1]; 19300 nM in [2]; 22300 nM in experiment [3]; over 100000 nM in experiment [4]; 32700 nM in [5]; 17900 nM in experiment [6]. The TGI in experiment [7] amounted to 8970 nM; in experiment [8], 2740 nM; in [9] it was 6310 nM; in experiment [10] it was 44900 nM.
